Experimental data taken from ChEMBL document CHEMBL1201862, “PubChem BioAssay data set” (2004).
Activity calls are given as the source filed them.

Experiments:
[1] = cytotoxicity in KRAS-transformed pancreatic duct cells, primary screen, cell-based, fluorescence, HTS (AID 431); format: functional; conditions: Homo sapiens;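 also: cell line used: HPDE-C7K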
[2] = cytotoxicity in HPDE-C7 cells, cell-based, fluorescence, HTS (AID 430); format: functional; conditions: Homo sapiens
[3] = Luminescence Cell-Based Dose Retest to Confirm Inhibitors of Cancer Stem Cells. [Related pubchem assays (depositor defined):AID2717, AID2721]; format: functional; conditions: Homo sapiens
[4] = target: T1, Zinc finger protein mex-5 (Caenorhabditis elegans, UniProt Q9XUB2); assay: MEX-5/TCR-2 RNA interaction inhibitors, dose response, biochemical, C. elegans, fluorescence polarization (AID 1960)
T1 sequence (Q9XUB2 whole entry): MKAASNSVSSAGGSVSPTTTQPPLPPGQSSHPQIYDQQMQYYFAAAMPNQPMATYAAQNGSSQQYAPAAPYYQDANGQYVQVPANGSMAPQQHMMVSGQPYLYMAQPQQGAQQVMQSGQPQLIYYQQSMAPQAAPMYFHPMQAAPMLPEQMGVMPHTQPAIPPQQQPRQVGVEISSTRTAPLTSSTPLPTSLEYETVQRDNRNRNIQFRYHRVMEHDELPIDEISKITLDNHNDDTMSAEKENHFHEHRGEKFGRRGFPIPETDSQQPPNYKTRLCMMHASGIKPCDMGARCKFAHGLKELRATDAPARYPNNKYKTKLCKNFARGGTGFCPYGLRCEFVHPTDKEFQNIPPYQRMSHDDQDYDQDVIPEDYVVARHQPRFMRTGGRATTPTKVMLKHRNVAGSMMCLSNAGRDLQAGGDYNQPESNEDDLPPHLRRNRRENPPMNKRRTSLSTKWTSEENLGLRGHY

[5] = target: T2, RNA-binding protein pos-1 (Caenorhabditis elegans, UniProt G5EF15); assay: inhibitors of POS-1/mex-3 RNA binding, dose response, biochemical, fluorescence polarization (AID 1964);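 also: purified POS-1 fused to maltose binding protein made in E. coli; potency of compounds blocking POS-1 binding to fluorescent RNA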
T2 sequence (G5EF15 whole entry): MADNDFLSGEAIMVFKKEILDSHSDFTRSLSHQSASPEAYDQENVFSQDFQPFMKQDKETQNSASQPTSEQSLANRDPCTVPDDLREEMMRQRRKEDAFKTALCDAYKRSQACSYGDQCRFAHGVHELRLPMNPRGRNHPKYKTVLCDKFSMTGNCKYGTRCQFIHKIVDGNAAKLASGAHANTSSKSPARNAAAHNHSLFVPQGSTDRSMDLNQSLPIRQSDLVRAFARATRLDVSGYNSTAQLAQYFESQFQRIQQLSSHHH

fMet-Leu-Phe receptor = target: T3, fMet-Leu-Phe receptor (Homo sapiens, UniProt P21462); assay: FPR ligands, dose response (AID 519); format: functional
T3 sequence (P21462 whole entry): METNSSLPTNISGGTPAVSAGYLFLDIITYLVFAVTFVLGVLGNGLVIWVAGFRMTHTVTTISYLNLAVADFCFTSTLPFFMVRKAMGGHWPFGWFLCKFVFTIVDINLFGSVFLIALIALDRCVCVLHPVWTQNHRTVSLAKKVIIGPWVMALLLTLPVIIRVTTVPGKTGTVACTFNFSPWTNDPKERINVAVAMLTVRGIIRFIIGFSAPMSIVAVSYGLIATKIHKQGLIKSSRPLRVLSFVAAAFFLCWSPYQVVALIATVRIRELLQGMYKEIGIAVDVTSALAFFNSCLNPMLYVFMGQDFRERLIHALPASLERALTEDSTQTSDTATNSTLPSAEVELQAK

Cytochrome P450 3A4 = Cytochrome P450 3A4 (Homo sapiens, UniProt P08684);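 also: CYP3A4 tested as one member of a cytochrome P450 panel screen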
Nonstructural protein 1 = Nonstructural protein 1 (Influenza A virus, UniProt Q194T2); format: functional, Influenza A virus (A/California/07/2009(H1N1))
Cytochrome P450 2C19 = Cytochrome P450 2C19 (Homo sapiens, UniProt P33261); assay: Cytochrome panel assay with activity outcomes. Panel member name: p450-cyp2c19 Compounds with AC50 equal or less than 10 uM are considered active; format: functional; conditions: read-out: AC50
Aminopeptidase N = target: T4, Aminopeptidase N (Plasmodium falciparum FcB1/Columbia, UniProt O96935); assay: P. falciparum M1AAP inhibitors, biochemical, fluorogenic H-Leu-NHMec substrate, 1536-well (AID 1445); design: species or system Plasmodium falciparum 3D7, 3D7
T4 sequence (O96935 whole entry): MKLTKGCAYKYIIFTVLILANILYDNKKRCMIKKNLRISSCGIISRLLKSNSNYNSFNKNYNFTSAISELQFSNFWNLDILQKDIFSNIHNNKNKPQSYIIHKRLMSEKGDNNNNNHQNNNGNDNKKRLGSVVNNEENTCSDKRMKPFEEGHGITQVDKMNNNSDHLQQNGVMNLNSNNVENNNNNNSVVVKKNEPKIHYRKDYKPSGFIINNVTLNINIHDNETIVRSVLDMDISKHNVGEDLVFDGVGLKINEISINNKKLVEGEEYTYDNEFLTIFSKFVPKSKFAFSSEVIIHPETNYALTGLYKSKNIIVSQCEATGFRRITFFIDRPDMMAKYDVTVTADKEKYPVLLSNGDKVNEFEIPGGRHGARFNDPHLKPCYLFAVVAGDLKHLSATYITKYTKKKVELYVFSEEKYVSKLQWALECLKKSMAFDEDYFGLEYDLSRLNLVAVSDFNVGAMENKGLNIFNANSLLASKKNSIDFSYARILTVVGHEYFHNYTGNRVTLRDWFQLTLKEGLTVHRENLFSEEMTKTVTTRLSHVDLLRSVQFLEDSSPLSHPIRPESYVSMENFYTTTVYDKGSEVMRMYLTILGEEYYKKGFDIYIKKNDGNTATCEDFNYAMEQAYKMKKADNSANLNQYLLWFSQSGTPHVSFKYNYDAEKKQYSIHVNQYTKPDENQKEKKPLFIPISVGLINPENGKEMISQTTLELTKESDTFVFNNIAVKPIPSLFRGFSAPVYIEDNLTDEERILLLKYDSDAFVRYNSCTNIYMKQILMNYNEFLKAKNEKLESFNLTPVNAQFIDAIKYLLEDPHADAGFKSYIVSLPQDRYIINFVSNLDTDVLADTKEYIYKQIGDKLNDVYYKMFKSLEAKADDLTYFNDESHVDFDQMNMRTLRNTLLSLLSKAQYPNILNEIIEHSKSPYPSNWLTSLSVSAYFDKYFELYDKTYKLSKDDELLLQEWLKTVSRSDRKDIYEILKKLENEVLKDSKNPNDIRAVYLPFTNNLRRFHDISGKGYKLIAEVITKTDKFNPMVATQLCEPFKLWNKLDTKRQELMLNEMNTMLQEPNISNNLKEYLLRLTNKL

[6] = target: Voltage-gated N-type calcium channel alpha-1B subunit/Amyloid beta A4 precursor protein-binding family A member 1 (Homo sapiens, UniProt Q00975+Q02410); format: protein assay
[7] = target: T5, Polyadenylate-binding protein 1 (Homo sapiens, UniProt P11940); assay: PABP1 MLLE–PAM2 binding inhibitor potency, dose response, biochemical, fluorescence polarization, FITC-PAM2 peptide (AID 602259); format: functional; conditions: read-out: IC50_Mean
[8] = target: T5, Polyadenylate-binding protein 1; assay: PABP1 MLLE–PAM2 interaction inhibitors, dose response, miRNA deadenylation inhibitor project, biochemical, fluorescence polarization, Cy5-PAM2 peptide, secondary (AID 602260); format: functional; conditions: read-out: IC50_Mean
[9] = Luminescence Cell-Based Dose Confirmation HTS to Identify Activators of 5'UTR Stem-Loop Driven Alpha-Synuclein mRNA Translation in H4 Neuroglioblastoma Cells. [Related pubchem assays: 1829 (Project Summary), 1814 (Primary HTS)]; format: functional
H4 = assay: Luminescence Cell-Based Dose Response HTS to Identify Activators of 5'UTR Stem-Loop Driven Prion Protein mRNA Translation in H4 Neuroglioblastoma Cells. [Related pubchem assays: 1829 (Project Summary), 1814 (Primary HTS)]; format: functional; conditions: Homo sapiens
[10] = Luminescence Cell-Based Dose Response HTS to Identify Activators of Luciferase Translation or Activity in H4 […] Cells. [Related pubchem assays: 1829 (Project Summary), 1814 (Primary HTS)]; format: functional
[11] = Vero E6 cell cytotoxicity, dose response, cytotoxicity control for non-replicating M. tuberculosis project, secondary assay (AID 492998); format: functional, VeroE6; conditions: Vero C1008
cells = format: functional
[12] = THP-1 cell cytotoxicity, dose response, cytotoxicity control for non-replicating M. tuberculosis project (AID 489025); format: functional
[13] = HepG2 cell cytotoxicity, dose response, cytotoxicity control for non-replicating M. tuberculosis project (AID 489018); format: functional; conditions: Mycobacterium tuberculosis
Paired box protein Pax-8 = Paired box protein Pax-8 (Homo sapiens, UniProt Q06710); assay: inhibitors of PAX8-driven TPO luciferase reporter, dose response, RMG-I cells, cherry-pick (AID 687027); format: functional, cell-based;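 also: luciferase reporter driven by Pax8 target thyroperoxidase promoter measured by SteadyGlo luminescence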
[14] = target: Disintegrin and metalloproteinase domain-containing protein 17 (Homo sapiens, UniProt P78536); assay: ADAM17 protease inhibitors, dose response, counter-screen for ADAM10 exosite inhibitor project, biochemical, quenched FRET substrate (AID 743253)
Beta-galactosidase = Beta-galactosidase (Escherichia coli, UniProt Q8VNN2); assay: beta-galactosidase enzyme inhibitors and activators, dose response, artefact control for CCR6 antagonist project, biochemical, E. coli enzyme, set 3 (AID 504712); format: functional
[15] = target: T6, Ubiquitin-conjugating enzyme E2 N (Homo sapiens, UniProt P61088); format: functional;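 also: Dose-response confirmation in a TR-FRET assay detecting UBC13-driven polyubiquitin chain formation, inhibition measured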
T6 sequence (P61088 whole entry): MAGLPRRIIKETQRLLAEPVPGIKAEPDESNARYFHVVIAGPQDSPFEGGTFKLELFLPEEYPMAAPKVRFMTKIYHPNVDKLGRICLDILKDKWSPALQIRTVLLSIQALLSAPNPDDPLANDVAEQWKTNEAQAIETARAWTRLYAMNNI

[16] = target: G-protein coupled receptor 55 (Homo sapiens, UniProt Q9Y2T6); assay: GPR55 agonists via beta-arrestin recruitment, primary screen, imaging, U2OS cells, beta-arrestin-GFP redistribution (AID 1961); format: functional
G-protein coupled receptor 55, sequence (Q9Y2T6 whole entry): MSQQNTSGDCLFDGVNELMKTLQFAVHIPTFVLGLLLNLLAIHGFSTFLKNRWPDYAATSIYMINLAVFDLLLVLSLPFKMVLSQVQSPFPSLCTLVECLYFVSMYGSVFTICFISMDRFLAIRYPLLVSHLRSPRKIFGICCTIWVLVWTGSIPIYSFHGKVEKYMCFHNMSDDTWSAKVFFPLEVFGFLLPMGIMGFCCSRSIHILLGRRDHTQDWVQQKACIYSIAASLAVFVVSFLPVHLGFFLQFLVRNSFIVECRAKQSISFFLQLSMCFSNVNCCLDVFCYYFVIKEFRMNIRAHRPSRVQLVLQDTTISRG

Cytochrome P450 3A4, sequence (P08684 whole entry): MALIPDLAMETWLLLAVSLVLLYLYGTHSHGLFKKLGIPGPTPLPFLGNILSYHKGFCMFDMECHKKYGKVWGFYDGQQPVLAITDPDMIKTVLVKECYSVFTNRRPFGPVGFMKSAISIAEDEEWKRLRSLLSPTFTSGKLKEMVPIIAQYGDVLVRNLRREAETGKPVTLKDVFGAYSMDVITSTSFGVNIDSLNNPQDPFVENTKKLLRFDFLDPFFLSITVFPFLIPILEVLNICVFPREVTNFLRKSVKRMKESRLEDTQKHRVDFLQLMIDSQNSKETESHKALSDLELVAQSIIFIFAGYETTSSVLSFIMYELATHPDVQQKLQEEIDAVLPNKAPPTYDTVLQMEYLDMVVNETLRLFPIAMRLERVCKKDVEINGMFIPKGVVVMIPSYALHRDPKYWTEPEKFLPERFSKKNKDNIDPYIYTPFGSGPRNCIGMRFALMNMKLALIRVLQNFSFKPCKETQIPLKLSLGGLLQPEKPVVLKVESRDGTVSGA
T5 sequence (P11940 whole entry): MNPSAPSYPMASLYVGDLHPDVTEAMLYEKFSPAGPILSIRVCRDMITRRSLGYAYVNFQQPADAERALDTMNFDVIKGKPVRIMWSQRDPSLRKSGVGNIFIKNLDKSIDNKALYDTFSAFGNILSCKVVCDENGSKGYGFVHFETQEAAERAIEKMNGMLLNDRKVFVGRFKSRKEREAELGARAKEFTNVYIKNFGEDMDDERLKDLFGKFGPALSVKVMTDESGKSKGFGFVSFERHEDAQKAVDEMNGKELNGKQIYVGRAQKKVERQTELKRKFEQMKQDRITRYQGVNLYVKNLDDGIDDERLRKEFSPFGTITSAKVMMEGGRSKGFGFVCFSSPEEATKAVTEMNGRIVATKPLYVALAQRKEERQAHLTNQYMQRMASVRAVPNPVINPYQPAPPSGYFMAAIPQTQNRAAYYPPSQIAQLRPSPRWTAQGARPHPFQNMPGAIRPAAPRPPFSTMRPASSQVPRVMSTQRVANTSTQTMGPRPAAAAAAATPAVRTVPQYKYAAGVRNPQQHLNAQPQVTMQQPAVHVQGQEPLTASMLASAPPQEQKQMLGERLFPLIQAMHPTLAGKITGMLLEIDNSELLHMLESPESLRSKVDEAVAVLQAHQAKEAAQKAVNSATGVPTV
Beta-galactosidase, sequence (Q8VNN2 whole entry): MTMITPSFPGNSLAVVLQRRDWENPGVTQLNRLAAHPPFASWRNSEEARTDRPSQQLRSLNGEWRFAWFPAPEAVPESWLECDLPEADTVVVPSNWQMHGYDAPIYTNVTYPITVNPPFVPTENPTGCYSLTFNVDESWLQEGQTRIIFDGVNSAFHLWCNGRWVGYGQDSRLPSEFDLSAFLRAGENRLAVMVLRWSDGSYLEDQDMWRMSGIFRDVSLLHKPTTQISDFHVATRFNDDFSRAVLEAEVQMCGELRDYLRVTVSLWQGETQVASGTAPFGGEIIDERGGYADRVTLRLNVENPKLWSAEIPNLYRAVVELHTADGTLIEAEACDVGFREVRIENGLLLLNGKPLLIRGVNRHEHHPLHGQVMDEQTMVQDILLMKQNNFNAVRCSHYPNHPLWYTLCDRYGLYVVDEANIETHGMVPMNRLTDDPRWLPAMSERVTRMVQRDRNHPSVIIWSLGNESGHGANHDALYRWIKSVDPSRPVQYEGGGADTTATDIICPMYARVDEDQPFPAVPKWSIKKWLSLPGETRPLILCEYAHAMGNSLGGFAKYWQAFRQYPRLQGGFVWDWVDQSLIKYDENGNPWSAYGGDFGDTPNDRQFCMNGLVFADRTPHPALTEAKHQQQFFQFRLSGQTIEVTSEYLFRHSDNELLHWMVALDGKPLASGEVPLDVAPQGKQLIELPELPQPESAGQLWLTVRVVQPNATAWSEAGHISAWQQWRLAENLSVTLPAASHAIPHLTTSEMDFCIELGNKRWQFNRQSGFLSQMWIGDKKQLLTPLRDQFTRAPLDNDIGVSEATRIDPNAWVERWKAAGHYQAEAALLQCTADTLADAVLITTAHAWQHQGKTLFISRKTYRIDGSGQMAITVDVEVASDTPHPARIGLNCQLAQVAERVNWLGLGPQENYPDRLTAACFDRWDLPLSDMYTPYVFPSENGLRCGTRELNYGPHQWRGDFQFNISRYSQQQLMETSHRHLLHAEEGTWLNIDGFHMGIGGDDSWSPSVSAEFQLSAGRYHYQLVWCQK
Paired box protein Pax-8, sequence (Q06710 whole entry, the tested form may be a part): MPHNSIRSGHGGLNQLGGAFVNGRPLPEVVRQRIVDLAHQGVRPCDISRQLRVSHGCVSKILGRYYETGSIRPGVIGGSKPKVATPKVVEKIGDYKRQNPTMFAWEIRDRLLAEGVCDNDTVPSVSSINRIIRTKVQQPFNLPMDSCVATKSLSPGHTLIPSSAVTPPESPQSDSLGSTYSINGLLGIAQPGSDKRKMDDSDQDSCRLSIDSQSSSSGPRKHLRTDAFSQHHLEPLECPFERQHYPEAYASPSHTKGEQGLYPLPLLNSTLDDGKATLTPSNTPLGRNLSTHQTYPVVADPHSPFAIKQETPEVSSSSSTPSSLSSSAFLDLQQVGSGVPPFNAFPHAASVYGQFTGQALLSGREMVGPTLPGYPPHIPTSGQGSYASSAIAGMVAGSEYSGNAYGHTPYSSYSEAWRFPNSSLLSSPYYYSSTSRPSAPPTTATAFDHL
Nonstructural protein 1, sequence (Q194T2 whole entry): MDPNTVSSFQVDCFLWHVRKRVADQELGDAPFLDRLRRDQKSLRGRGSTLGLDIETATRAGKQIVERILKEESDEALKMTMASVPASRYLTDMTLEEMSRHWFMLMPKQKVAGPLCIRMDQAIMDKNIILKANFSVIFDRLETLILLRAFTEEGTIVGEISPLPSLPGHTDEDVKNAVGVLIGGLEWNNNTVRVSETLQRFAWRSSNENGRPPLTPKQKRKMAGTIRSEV
Disintegrin and metalloproteinase domain-containing protein 17, sequence (P78536 whole entry, the tested form may be a part): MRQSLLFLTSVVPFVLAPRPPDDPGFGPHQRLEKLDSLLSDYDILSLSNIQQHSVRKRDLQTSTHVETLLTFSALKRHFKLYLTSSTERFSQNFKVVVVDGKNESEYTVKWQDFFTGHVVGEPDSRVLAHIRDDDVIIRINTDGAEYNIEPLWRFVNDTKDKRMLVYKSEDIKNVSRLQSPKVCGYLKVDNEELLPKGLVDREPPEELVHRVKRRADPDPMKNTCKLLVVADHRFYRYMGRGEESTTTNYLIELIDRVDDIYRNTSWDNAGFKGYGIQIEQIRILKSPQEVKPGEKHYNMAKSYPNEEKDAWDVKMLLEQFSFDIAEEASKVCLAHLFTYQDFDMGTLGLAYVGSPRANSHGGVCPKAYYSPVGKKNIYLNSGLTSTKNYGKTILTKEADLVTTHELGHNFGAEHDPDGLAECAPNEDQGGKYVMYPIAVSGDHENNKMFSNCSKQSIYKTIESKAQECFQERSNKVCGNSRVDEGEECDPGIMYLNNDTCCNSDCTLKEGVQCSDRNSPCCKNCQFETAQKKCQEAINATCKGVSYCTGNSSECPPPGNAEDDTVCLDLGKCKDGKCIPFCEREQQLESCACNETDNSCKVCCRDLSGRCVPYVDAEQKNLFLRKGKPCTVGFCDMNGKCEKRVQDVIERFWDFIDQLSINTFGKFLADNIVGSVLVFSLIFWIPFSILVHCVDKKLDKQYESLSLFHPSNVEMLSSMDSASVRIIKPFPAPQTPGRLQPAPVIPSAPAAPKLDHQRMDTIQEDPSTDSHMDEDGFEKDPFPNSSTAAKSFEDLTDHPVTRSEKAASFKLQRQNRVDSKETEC
Cytochrome P450 2C19, sequence (P33261 whole entry): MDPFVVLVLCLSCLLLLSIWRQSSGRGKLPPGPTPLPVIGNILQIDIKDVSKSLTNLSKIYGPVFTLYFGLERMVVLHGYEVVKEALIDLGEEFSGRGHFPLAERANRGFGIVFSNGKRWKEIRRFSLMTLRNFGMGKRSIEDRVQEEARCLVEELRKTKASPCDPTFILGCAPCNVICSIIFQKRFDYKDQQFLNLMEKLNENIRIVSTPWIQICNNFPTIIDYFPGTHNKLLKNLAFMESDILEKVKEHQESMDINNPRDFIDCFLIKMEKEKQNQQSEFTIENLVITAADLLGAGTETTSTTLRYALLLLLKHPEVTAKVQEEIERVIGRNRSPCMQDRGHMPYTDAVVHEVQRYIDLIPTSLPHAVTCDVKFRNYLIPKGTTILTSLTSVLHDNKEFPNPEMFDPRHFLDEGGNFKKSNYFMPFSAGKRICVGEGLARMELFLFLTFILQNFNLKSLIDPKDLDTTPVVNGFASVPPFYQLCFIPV

## Cc1ccc(Cl)cc1N1CCN(C(=O)c2ccc(NS(=O)(=O)c3c(C)noc3C)cc2)CC1
[1]
  EC50: 16.7 µM (active)
[2]
  EC50: 13.2 µM (active)

## N#CC1=C(SCC(=O)c2ccc(Br)cc2)N=C2CCCC(O)=C2C1c1ccco1 (stereo not given)
[3]
  AC50: 2.13 µM (active)
[1]
  EC50: 5.58 µM (active)
[2]
  EC50: 4.34 µM (active)

## C=CCOc1ccc(C2C(C(=O)c3cccs3)=C(O)C(=O)N2c2nnc(C)s2)cc1 (stereo not given)
[4]
  EC50: 3.06 µM (active)
[5]
  EC50: 10.8 µM (inconclusive)
fMet-Leu-Phe receptor
  Ki: 40.5 µM (inactive)

## CCC1(C)Nc2ccccc2C(=O)N1O (stereo not given)
[1]
  EC50: > 20 µM (not active)
[2]
  EC50: 17.1 µM (active)

## CCN1C(=O)/C(=C2\SC(=S)N(CCCOC)C2=O)c2ccccc21
Cytochrome P450 3A4
  AC50: 3.55 µM (inconclusive)
Nonstructural protein 1
  IC50: 62.7 µM (active)
Cytochrome P450 2C19
  AC50: 11.2 µM (inconclusive)
fMet-Leu-Phe receptor
  Ki: > 66.7 µM (inactive)

## Oc1[nH]c2ccc(Br)cc2c1N=Nc1nn[nH]n1
[4]
  EC50: 5.18 µM (active)
[5]
  EC50: 14 µM (active)
Aminopeptidase N
  IC50: 26.5 µM (active)

## NS(=O)(=O)c1ccc(N/N=C/c2ccc3c(c2)OCO3)c([N+](=O)[O-])c1
[6]
  IC50: 3.59 µM (active)

## Cc1ccc(/C=C2\SC(=S)N(c3c(C)n(C)n(-c4ccccc4)c3=O)C2=O)cc1
[7]
  IC50: > 66 µM (inactive)
[8]
  IC50: > 66 µM (inactive)
Aminopeptidase N
  IC50: 120 µM (active)

## CCOC(=O)C1=C(N)n2c(s/c(=C\c3ccco3)c2=O)=C(C(=O)OCC)C1c1ccco1 (stereo not given)
[9]
  EC50: > 120 µM (not active)
Cytochrome P450 3A4
  AC50: 28.2 µM (inconclusive)
H4
  EC50: > 120 µM (not active)
[1]
  EC50: 1.19 µM (active)
[2]
  EC50: 1.47 µM (active)
[10]
  EC50: > 120 µM (not active)

## O=C(CNC(=O)c1ccccc1Cl)N/N=C/c1ccc([N+](=O)[O-])s1
[11]
  CC50: 13.6 µM (active)
cells
  IC50: 36.6 µM (active)
[12]
  CC50: 25 µM (active)
[13]
  CC50: > 20 µM (active)

## Cc1ccc(NC(=O)c2ccc([N+](=O)[O-])o2)c(C)c1
[11]
  CC50: 6.74 µM (active)
cells
  IC50: 3.46 µM (active)
[12]
  CC50: 15.4 µM (active)
[13]
  CC50: > 20 µM (active)

## O=c1[nH]c2ccccc2n1C1CCN(C(c2ccccc2OC(F)(F)F)c2nnnn2-c2ccc3c(c2)OCCO3)CC1 (stereo not given)
Paired box protein Pax-8
  AC50: 4.52 µM (active)
[14]
  IC50: > 69.5 µM (inactive)

## O=C(CSc1nccn1-c1ncc(C(F)(F)F)cc1Cl)c1ccc(Cl)cc1
Beta-galactosidase
  IC50: > 66.6 µM (inactive)

## NC(=O)c1nsc(C(=O)N(c2ccc(F)cc2)C(C(=O)NCC2CCCO2)c2c[nH]c3ccccc23)c1N (stereo not given)
[15]
  IC50: > 20 µM (inactive)

## OCCNc1nc(O)c2c(ncn2Cc2ccccc2)n1
[16]
  EC50: > 32 µM (inactive)
